Where two headings read alike, the source gives them in different places.
Experiments:
[1] = In vivo pharmacokinetics in portal hypertension patients (plasma HPLC); settings: human
Method: Nine volunteers among portal hypertension patients who were in the criterion of age from 19-45 and weight over 45 kg (within 15% deviation of ideal body weight) participated in experiments. They were all volunteers who agreed in writing to join the experiments and were trustworthy, cooperative and willing to follow the rules.
A double blind method was used for the experiments. At 8-9 am on the test day, test medicines were given with 240 mL of water to volunteers. For 4 hours from the administration, they were fasted, and lunch was provided 4 hours later and dinner was provided 9 hours later. Blood samples were taken before the administration on the test day and at the 0.5th, 1st, 1.5th, 2nd, 2.5th, 3rd, 4th, 5th, 6th, 8th, 12th, 24th and 32nd hour after the administration. Blood plasma was isolated, followed by HPLC. 100 μL of 0.1 M sodium carbonate and 1.0 mL of ethyl ether were added to 0.5 mL of blood plasma, then mixed well for 1 minute, followed by centrifugation at 12,000 rpm for 3 minutes. Supernatant was obtained and organic solvent was volatilized using speed vac. Then, 100 μL of moving phase was added, followed by stirring.

[2] = test system: experimental cirrhosis models; settings: dose-dependently; cited from earlier work
[3] = test system: collagen synthesis in hepatic stellate cells; assay: Inhibitory effect on collagen synthesis using hepatic stellate cells (RT-PCR for collagen); format: cell-based, Sprague Dawley rat; settings: for IC50: Rattus norvegicus, hepatic stellate cells pre-treated with 25 ng/mL PDGF for 24 hours, collagen RT-PCR relative to beta-actin, mean ± standard deviation
Method: The following experiments were performed to investigate the inhibition effect of pyrazolopyrimidinone derivative of the present invention on collagen synthesis. Hepatic stellate cells were isolated from Sprague Dawley white male rats (about 300 g in weight, n=10). First, ketamin was injected into the abdominal cavity to anesthetize the rats. The abdomen was opened and heparin was injected into the portal vein. Then, Hank's buffer solution containing 0.02% pronase and 0.015% collagenase was perfused through the liver for a required time to prepare liver in sections. The extracted liver was crushed on a sterilized petri-dish, then put in a buffer solution containing pronase and DNase, and the crushed liver was then homogenized on a sterilized petri-dish. The prepared sample was filtered with 100 μm nylon mesh in a 50 mL tube. Centrifugation was performed with 50 g for 2 minutes to separate nonparenchymal cells in supernatant. Centrifugation was performed again with 450 g at 4° C. for 10 minutes. The precipitate was floated in a buffer solution containing 25 μg/mL of DNase, followed by centrifugation with 450 g at 4° C. for 10 minutes, which was repeated twice. The final precipitate was floated in 21 mL of buffer solution, which was then mixed with 17 mL of 25% OptiPrep to prepare the final solution of 11.2% OptiPrep (1.058 cm^3). Cell suspension solution mixed with OptiPrep was carefully distributed into four 15 mL tubes containing 3 mL of 17% OptiPrep, to which 1 mL of buffer solution was added. Centrifugation was performed with 1400 g at 4° C. for 17 minutes, and as a result, pure hepatic stellate cells were obtained from the opaque layer between the buffer solution and […]. The separated hepatic stellate cells were suspended in DMEM (Dulbecco's Modified Eagle' Media), followed by washing. The cells were suspended again in DMEM supplemented with 10% FBS (Fetal Bovine Serum) and antibiotics, then inoculated into a culture vessel, which was cultured in a 37° C. 5% CO2 incubator. The culture medium was first replaced 24 hours later, and then replaced every 48 hours for sub-culture. Hepatic stellate cells sub-cultured 8 times were grouped by 2×10^5, which were pre-treated with 25 ng/mL of PDGF (Platelet Derived Growth Factor) for 24 hours. […] The total RNA was extracted and RT-PCR (Reverse Transcriptase Polymerase Chain Reaction) for collagen was performed. Based on the relative concentration to beta-actin, a target material was compared with other test samples. In order to determine the inhibitory effect of a target sample on collagen synthesis, inhibitory concentration 50% (IC50) was investigated, and the result is shown in Table 1.

[4] = test system: collagen synthesis in liver, hepatic fibrosis model; assay: Liver protective effect in DMN-induced hepatic fibrosis animal model (collagen type I/III immunohistological staining); format: in vivo, Sprague Dawley rat; settings: 10 mg/kg/day oral for 2 weeks; for collagen synthesis in hepatic portal veins and around the portal veins (immunohistology): DMN 10 mg/kg i.p. three times per week for 2 weeks, versus solvent control
Method: The following experiments were performed to investigate the in vivo collagen synthesis inhibitory effect of pyrazolopyrimidinone derivative of the present invention. Sprague Dawley white female rats (having approximately 300 g in weight) were divided into 4 groups (5 rats per group), and hepatic fibrosis was induced in experimental groups except the wild type control group (Toxicology, 2001). DMN (dimethylnitrosamine) was injected into the abdominal cavity in a dose of 10 mg/kg serially for 2 weeks with a dose frequency of three times per week. […] Only triazole buffer was administered to the solvent control group. Two weeks later, the liver was extracted, fixed in 10% neutral formalin, embedded in paraffin and sliced by […]. Each section was treated with xylene to eliminate paraffin, followed by treatment with alcohol and 0.1% hydrogen peroxide (H2O2). After treatment with PBS, the sections were treated with polyclonal antiserum (Chemicon) against collagen type I diluted by 1:500 and polyclonal antiserum (BioGenesis) against collagen type III diluted by 1:100, at 37° C. for one hour. After washing, samples were treated with 1:200 diluted biotin-conjugated goat anti-rabbit IgG. Immunohistological staining was performed by reacting the samples with avidin-biotin complex (Vector Laboratories), then antigen-antibody complex was marked with 3-amino-9-ethylcarbazole (AEC), whose image was taken by optical microscope now shown in FIG. 1-4. The control group was treated with non-immunized horse serum instead of primary antibody.

[5] = test system: portal hypertension model; assay: Portal hypertension animal model (bile duct ligation): portal blood pressure, portal vein diameter, blood flow; format: in vivo, beagle dog; settings: 10 mg/kg/day oral for two weeks; for Portal vein diameter / Blood flow rate (portal vein) / Portal blood pressure: bile duct ligated beagle dogs, mean ± standard deviation; for Portal vein diameter: Doppler ultrasonography
Method: The following experiments were performed to investigate the effect of pyrazolopyrimidinone derivative on portal hypertension. 12 beagle dogs weighing about 10 kg were divided into four groups (3 dogs were chosen per group randomly), and bile duct ligation was performed on them. […] The animals were fasted for 4 hours, then pentobarbital was intravenously injected to anesthetize them. A tube was inserted through the mesenteric vein to the portal vein to measure portal blood pressure. Doppler ultrasonography was also performed to measure the diameter of portal vein. Blood flow through the portal vein was measured by using the following mathematical chemistry FIG. 1, and the result is shown in Table 2. [formula]

[6] = pKa (physicochemical properties)
[7] = Solubility (physicochemical properties)

IC50 [3] [nM] | SMILES | collagen synthesis in hepatic portal veins and around the portal veins (immunohistology) [4] | blood flow rate through portal vein increase compared with solvent treated group [5] [%] | portal blood pressure decrease compared with solvent treated control group [5] [%] | Portal vein diameter [5] [mm] | Blood flow rate (portal vein) [5] [mL/min] | Portal blood pressure [5] [kPa] | other results
13.1 ± 2.3 | CCCc1nn(C)c2c(=O)[nH]c(-c3cc(S(=O)(=O)N4CCN(C)CC4)ccc3OCC)nc12 [Sildenafil, sildenafil] | remarkably inhibited | 29.1 | 7 | 7.47 ± 0.21 | 754.47 ± 80.24 | 2.93 ± 0.25 | half-life ([1]; plasma, patients with portal hypertension, 50 mg oral, mean ± standard deviation, read-out: Half-life (converted)): 4.5 ± 1.2 h; Portal blood pressure [2]: increases; blood flow through mesenteria [2]: increases
7.8 ± 1.7 | CCCc1nc(C)c2c(=O)[nH]c(-c3cc(S(=O)(=O)N4CCN(CC)CC4)ccc3OCC)nn12 [Vardenafil, vardenafil] | – | 24.8 | 9 | 7.43 ± 0.21 | 729.29 ± 83.23 | 2.87 ± 0.25 | half-life ([1]; plasma, patients with portal hypertension, 10 mg oral, mean ± standard deviation, read-out: Half-life (converted)): 6.3 ± 2.1 h
0.8 ± 0.2 | CCCOc1ccc(S(=O)(=O)NCCC2CCCN2C)cc1-c1nc2c(CCC)nn(C)c2c(=O)[nH]1 (stereo not shown) [Pyrazolopyrimidinone derivative, 5-[2-propyloxy-5-(1-methyl-2-pyrrolidinylethyl amidosulfonyl)phenyl]-1-methyl-3-propyl-1,6-dihydro-7H-pyrazolo(4,3-d)pyrimidin-7-one] | remarkably inhibited | 59.9 | 21 | 7.70 ± 0.26 | 932.31 ± 89.83 | 2.50 ± 0.20 | half-life, fold longer than vardenafil ([1]; in vivo): two fold; half-life ([1]; in vivo, po, 100 mg): 15.1 ± 3.5 h; collagen synthesis inhibitory effect, times higher than sildenafil ([3]; ratio of IC50 versus sildenafil): 16 times; collagen synthesis inhibitory effect, times higher than vardenafil ([3]; ratio of IC50 versus vardenafil): 10 times; collagen synthesis inhibitory effect, times as excellent as other conventional PDE 5 inhibitors ([3]; versus other conventional PDE 5 inhibitors (Table 1)): 10-16 times; inhibition of collagen synthesis compared with the sildenafil treated group ([4]; DMN rats): greater than that in the sildenafil treated group; pKa1 [6]: 6.5; pKa2 [6]: 12.5; solubility in acetic acid, methanol and chloroform ([7]; acetic acid, methanol and chloroform): soluble; solubility in water ([7]; water): insoluble

Reference: patent US8796286B2, “Agent for treatment of liver diseases containing pyrazolopyrimidinone derivative” (Mezzion Pharma Co., Ltd., priority 2005, dated 2014)
